Reference: paper PMC9363195, “Preclinical Pharmacokinetics, Biodistribution, and Acute Toxicity Evaluation of Caerin 1.9 Peptide in Sprague Dawley Rats” (Evidence-based Complementary and Alternative Medicine : eCAM, 2022)
Peptide text beside a SMILES is read from it.

System: SD rats
Test: Hematology and coagulation analysis in acute toxicity study
Assay type: in vivo, Sprague Dawley rats
Settings: female SD rats, day 15, mean ± SD
Procedure: Forty SD rats (20 males and 20 females) were randomly divided into 4 groups (Figure 1). All rats were given F3 once on the day of the experiment.
Twelve SD rats (6 males, 6 females) were given a daily subcutaneous injection of F3 at a dose of 10.0 mg/kg for consecutive 14 days. The first day of administration was recorded as day 1.
For 14 days, the body weight was measured before F3 administration on the first day of the experiment and once a week thereafter, with additional measurements on the day before and on the day of the planned autopsy. Food intake was recorded once a week. The rats were anesthetized by inhalation of 70% CO2/30% O2 before dissection, and blood samples were taken for hematology and biochemical analysis. The collected tissue was weighed and preserved for pathological examination.
Blood smears were used to investigate the morphology of basophils (ABBASO), eosinophils (ABEOS), neutrophils (ABNEUT), monocytes (ABMONO), and lymphocytes (ABLYMP) in the peripheral blood. When white blood cell classification and reticulocyte count cannot be calculated directly by ADVIA 2120i, they were manually counted and calculated following the procedure published previously. The number of platelets was determined manually when they could not be counted mechanically because of coagulation. Wright-Giemsa staining was used to prepare blood smears for cell morphology.
Liver and renal functions were measured with special attention to alanine aminotransferase (ALT), aspartate aminotransferase (AST), alkaline phosphatase (ALP), serum creatinine, total bilirubin, and urea levels. In addition, the levels of glucose, calcium, total protein, and albumin in serum samples were measured. The blood biochemical test, hematology test, and coagulation function test were detected by Hitachi 7180 automatic biochemical analyzer, Siemens ADVIA 2120i hematology analyzer, and Stargo Emo Express Hemagglutination analyzer, respectively.

[1] = s.c. 10.0 mg/kg daily x14 d, n=6

Q: With `CC[C@H](C)[C@H](NC(=O)[C@H](CO)NC(=O)CNC(=O)[C@H](CC(C)C)NC(=O)[C@@H](NC(=O)CNC(=O)[C@H](Cc1ccccc1)NC(=O)[C@H](CC(C)C)NC(=O)CN)C(C)C)C(=O)N[C@@H](C)C(=O)N[C@@H](CCCCN)C(=O)N[C@@H](Cc1c[nH]cn1)C(=O)N[C@H](C(=O)N[C@@H](CC(C)C)C(=O)N1CCC[C@H]1C(=O)N[C@@H](Cc1c[nH]cn1)C(=O)N[C@H](C(=O)N[C@H](C(=O)N1CCC[C@H]1C(=O)N[C@H](C(=O)N[C@H](C(=O)N[C@@H](C)C(=O)N[C@@H](CCC(=O)O)C(=O)N[C@@H](CCCCN)C(=O)N[C@@H](CC(C)C)C(N)=O)[C@@H](C)CC)C(C)C)C(C)C)C(C)C)C(C)C` [F3, Caerin 1.9] (H-GLFGVLGSIAKHVLPHVVPVIAEKL-NH2) as the compound, how does the “ABBASO (basophils)” value [1] read?
A: 0.01 ± 0 10^9/L

Q: What about the “ABEOS (eosinophils)” value [1] of the same compound?
A: 0.16 ± 0.07 10^9/L

Q: And the “ABLYMP (lymphocytes)” value [1]?
A: 7.64 ± 1.61 10^9/L

Q: And the “ABMONO (monocytes)” value [1]?
A: 0.23 ± 0.08 10^9/L

Q: And the “ABNEUT (neutrophils)” value [1]?
A: 2.53 ± 0.45 10^9/L

Q: What about the ABRETIC [1] of the same compound?
A: 273.87 ± 31.75 10^9/L

Q: And the APTT [1]?
A: 14.9 ± 0.28 s

Q: And the HCT [1]?
A: 38.2 ± 1.34%

Q: What about the HGB [1] of the same compound?
A: 11.62 ± 0.50 g/dL

Q: And the MCH [1]?
A: 19.25 ± 0.69 pg

Q: And the MCHC [1]?
A: 30.4 ± 0.46 g/dL

Q: What about the MCV [1] of the same compound?
A: 63.38 ± 2.38 fL

Q: What about the MPV [1] of the same compound?
A: 8.58 ± 0.42 fL

Q: And the PLT [1]?
A: 1357.67 ± 169.65 10^9/L

Q: And the PT [1]?
A: 20.45 ± 1.16 s

Q: What about the RBC [1] of the same compound?
A: 6.04 ± 0.37 10^12/L

Q: And the WBC [1]?
A: 10.67 ± 1.900 10^9/L

Q: And the “ABBASO (basophils)” value (single s.c. 1.0 mg/kg, n=5)?
A: 0.006 ± 0.005 10^9/L

Q: What about the “ABEOS (eosinophils)” value (single s.c. 1.0 mg/kg, n=5) of the same compound?
A: 0.072 ± 0.034 10^9/L

Q: And the “ABLYMP (lymphocytes)” value (single s.c. 1.0 mg/kg, n=5)?
A: 5.956 ± 2.336 10^9/L

Q: And the “ABMONO (monocytes)” value (single s.c. 1.0 mg/kg, n=5)?
A: 0.228 ± 0.234 10^9/L

Q: What about the “ABNEUT (neutrophils)” value (single s.c. 1.0 mg/kg, n=5) of the same compound?
A: 1.71 ± 1.516 10^9/L

Q: What about the ABRETIC (single s.c. 1.0 mg/kg, n=5) of the same compound?
A: 226.5 ± 33.41 10^9/L

Q: What about the APTT (single s.c. 1.0 mg/kg, n=5) of the same compound?
A: 16.94 ± 1.15 s

Q: What about the HCT (single s.c. 1.0 mg/kg, n=5) of the same compound?
A: 45.34 ± 3.13%

Q: And the HGB (single s.c. 1.0 mg/kg, n=5)?
A: 14.44 ± 1.06 g/dL

Q: And the MCH (single s.c. 1.0 mg/kg, n=5)?
A: 19.06 ± 0.27 pg

Q: And the MCHC (single s.c. 1.0 mg/kg, n=5)?
A: 31.82 ± 0.47 g/dL

Q: What about the MCV (single s.c. 1.0 mg/kg, n=5) of the same compound?
A: 59.86 ± 0.56 fL

Q: And the MPV (single s.c. 1.0 mg/kg, n=5)?
A: 9.02 ± 0.30 fL

Q: And the PLT (single s.c. 1.0 mg/kg, n=5)?
A: 1081.6 ± 83.2 10^9/L

Q: What about the PT (single s.c. 1.0 mg/kg, n=5) of the same compound?
A: 20.06 ± 0.75 s

Q: And the RBC (single s.c. 1.0 mg/kg, n=5)?
A: 7.584 ± 0.568 10^12/L

Q: What about the WBC (single s.c. 1.0 mg/kg, n=5) of the same compound?
A: 8.022 ± 3.840 10^9/L

Q: And the “ABBASO (basophils)” value (single s.c. 10.0 mg/kg, n=5)?
A: 0.01 ± 0.007 10^9/L

Q: What about the “ABEOS (eosinophils)” value (single s.c. 10.0 mg/kg, n=5) of the same compound?
A: 0.072 ± 0.032 10^9/L

Q: What about the “ABLYMP (lymphocytes)” value (single s.c. 10.0 mg/kg, n=5) of the same compound?
A: 6.526 ± 1.92 10^9/L

Q: What about the “ABMONO (monocytes)” value (single s.c. 10.0 mg/kg, n=5) of the same compound?
A: 0.136 ± 0.034 10^9/L

Q: What about the “ABNEUT (neutrophils)” value (single s.c. 10.0 mg/kg, n=5) of the same compound?
A: 1.128 ± 0.308 10^9/L

Q: And the ABRETIC (single s.c. 10.0 mg/kg, n=5)?
A: 192.02 ± 21.07 10^9/L

Q: And the APTT (single s.c. 10.0 mg/kg, n=5)?
A: 18.24 ± 1.36 s

Q: What about the HCT (single s.c. 10.0 mg/kg, n=5) of the same compound?
A: 46.98 ± 1.22%

Q: And the HGB (single s.c. 10.0 mg/kg, n=5)?
A: 14.9 ± 0.29 g/dL

Q: And the MCH (single s.c. 10.0 mg/kg, n=5)?
A: 18.78 ± 0.75 pg

Q: And the MCHC (single s.c. 10.0 mg/kg, n=5)?
A: 31.76 ± 0.46 g/dL

Q: What about the MCV (single s.c. 10.0 mg/kg, n=5) of the same compound?
A: 59.1 ± 1.71 fL

Q: What about the MPV (single s.c. 10.0 mg/kg, n=5) of the same compound?
A: 9.28 ± 0.20 fL

Q: And the PLT (single s.c. 10.0 mg/kg, n=5)?
A: 1004.4 ± 93.7 10^9/L

Q: What about the PT (single s.c. 10.0 mg/kg, n=5) of the same compound?
A: 19.44 ± 0.70 s

Q: And the RBC (single s.c. 10.0 mg/kg, n=5)?
A: 7.954 ± 0.424 10^12/L

Q: And the WBC (single s.c. 10.0 mg/kg, n=5)?
A: 7.922 ± 1.865 10^9/L

Q: And the “ABBASO (basophils)” value (single s.c. 100.0 mg/kg, n=5)?
A: 0.008 ± 0.004 10^9/L

Q: And the “ABEOS (eosinophils)” value (single s.c. 100.0 mg/kg, n=5)?
A: 0.06 ± 0.031 10^9/L

Q: What about the “ABLYMP (lymphocytes)” value (single s.c. 100.0 mg/kg, n=5) of the same compound?
A: 5.886 ± 1.807 10^9/L

Q: What about the “ABMONO (monocytes)” value (single s.c. 100.0 mg/kg, n=5) of the same compound?
A: 0.142 ± 0.094 10^9/L

Q: And the “ABNEUT (neutrophils)” value (single s.c. 100.0 mg/kg, n=5)?
A: 1.148 ± 0.434 10^9/L

Q: And the ABRETIC (single s.c. 100.0 mg/kg, n=5)?
A: 215.84 ± 21.41 10^9/L

Q: What about the APTT (single s.c. 100.0 mg/kg, n=5) of the same compound?
A: 17.02 ± 1.47 s

Q: And the HCT (single s.c. 100.0 mg/kg, n=5)?
A: 47.16 ± 1.49%

Q: And the HGB (single s.c. 100.0 mg/kg, n=5)?
A: 14.96 ± 0.47 g/dL

Q: What about the MCH (single s.c. 100.0 mg/kg, n=5) of the same compound?
A: 18.64 ± 1 pg

Q: And the MCV (single s.c. 100.0 mg/kg, n=5)?
A: 58.8 ± 2.76 fL

Q: What about the MPV (single s.c. 100.0 mg/kg, n=5) of the same compound?
A: 9 ± 0.19 fL

Q: What about the PLT (single s.c. 100.0 mg/kg, n=5) of the same compound?
A: 987 ± 86.1 10^9/L

Q: What about the PT (single s.c. 100.0 mg/kg, n=5) of the same compound?
A: 19.72 ± 0.50 s

Q: What about the RBC (single s.c. 100.0 mg/kg, n=5) of the same compound?
A: 8.042 ± 0.561 10^12/L
